Data as given in patent US4272437A, “Antibacterial agents, and 4-thio azetidinone intermediates” (priority 1979, dated 1981).
Values after ≈ are worked out from the molar mass of the structure shown. Where two headings read alike, the source gives them in different places.

Tests used:
[1] = tested on: Staph. aureus (Meth-Res) A-15097; experiment: MIC, tube dilution, Staphylococcus aureus A15097 (Meth-Res); type: cell-based; conditions: Staphylococcus aureus, overnight 37° C.
Description: (§1) Representative compounds of the present invention were subjected to in vitro antibiotic screening against a variety of microorganisms.

Ser. marcescens A-20019 = experiment: MIC, tube dilution, Serratia marcescens A20019; type: cell-based; conditions: overnight 37° C.; for MIC: Serratia marcescens, A20019, Serratia marcescens A20019, read-out: Minimum Inhibitory Concentration (M.I.C.)
Description: as §1

Pr. mirabilis A-9900 = experiment: MIC, tube dilution, Proteus mirabilis A9900; type: cell-based; conditions: overnight 37° C.; for MIC: Proteus mirabilis, A9900, Proteus mirabilis A9900, read-out: Minimum Inhibitory Concentration (M.I.C.)
Description: as §1

[2] = tested on: Staph. aureus A-9537 and 50% serum; experiment: MIC, tube dilution, Staph. aureus A9537 + 50% serum; type: cell-based, Staphylococcus aureus; conditions: Staphylococcus aureus, overnight 37° C., read-out: Minimum Inhibitory Concentration (M.I.C.)
Description: as §1

Ent. cloacae A-9656 = experiment: MIC, tube dilution, Enterobacter cloacae A9656; type: cell-based; conditions: overnight 37° C., read-out: Minimum Inhibitory Concentration (M.I.C.)
Description: as §1

Ps. aeruginosa A-9843A = experiment: MIC, tube dilution, Pseudomonas aeruginosa A9843A; type: cell-based; conditions: Pseudomonas aeruginosa, A9843A, read-out: Minimum Inhibitory Concentration (M.I.C.), Pseudomonas aeruginosa A9843A; overnight 37° C.
Description: as §1

K. pneumoniae A-15130 = experiment: MIC, tube dilution, Klebsiella pneumoniae A15130; type: cell-based; conditions: overnight 37° C.; for MIC: Klebsiella pneumoniae, A15130, K. pneumoniae A15130, read-out: Minimum Inhibitory Concentration (M.I.C.)
Description: as §1

E. coli A-20341-1 = experiment: MIC, tube dilution, Escherichia coli A20341-1; type: cell-based
Description: as §1

Str. faecalis A-20688 = experiment: MIC, tube dilution, Streptococcus faecalis A20688; type: cell-based; conditions: Enterococcus faecalis, A20688, Str. faecalis A20688; overnight 37° C.; read-out: Minimum Inhibitory Concentration (M.I.C.)
Description: as §1

Ent. cloacae A-9659 = experiment: MIC, tube dilution, Enterobacter cloacae A9659; type: cell-based; conditions: overnight 37° C.; for MIC: Enterobacter cloacae, A9659, Enterobacter cloacae A9659, read-out: Minimum Inhibitory Concentration (M.I.C.)
Description: as §1

Pr. morganii A-15153 = experiment: MIC, tube dilution, Proteus morganii A15153; type: cell-based; conditions: overnight 37° C.; for MIC: Morganella morganii, A15153, Proteus morganii A15153, read-out: Minimum Inhibitory Concentration (M.I.C.)
Description: as §1

Staph. aureus A-9537 = experiment: MIC, tube dilution, Staphylococcus aureus A9537; type: cell-based; conditions: overnight 37° C., Nutrient Broth; for MIC: Staphylococcus aureus, A9537, Staph. aureus A9537, read-out: Minimum Inhibitory Concentration (M.I.C.)
Description: as §1

[3] = tested on: Staph. aureus (Pen-Res) A-9606; experiment: MIC, tube dilution, Staphylococcus aureus A9606 (Pen-Res); type: cell-based; conditions: overnight 37° C.; for MIC: Staphylococcus aureus
Description: as §1

Ps. aeruginosa A-21213 = experiment: MIC, tube dilution, Pseudomonas aeruginosa A21213; type: cell-based; conditions: Pseudomonas aeruginosa A21213; overnight 37° C.; read-out: Minimum Inhibitory Concentration (M.I.C.)
Description: as §1

[4] = tested on: Klebsiella species A20468; experiment: MIC, tube dilution, Klebsiella species A20468; type: cell-based; conditions: Klebsiella species (K. pneumoniae) A20468; overnight 37° C.; read-out: Minimum Inhibitory Concentration (M.I.C.)
Description: as §1

E. coli A-15119 = experiment: MIC, tube dilution, Escherichia coli A15119; type: cell-based; conditions: overnight 37° C.; for MIC: Escherichia coli, A15119, E. coli A15119, read-out: Minimum Inhibitory Concentration (M.I.C.)
Description: as §1

[5] = tested on: Providencia stuartii A21205; experiment: MIC, tube dilution, Providencia stuartii (Pr. rettgeri) A21205; type: cell-based; conditions: Providencia stuartii
Description: as §1

Pr. vulgaris A-9716 = experiment: MIC, tube dilution, Proteus vulgaris / Proteus mirabilis A9716; type: cell-based, Proteus vulgaris (name changed to Proteus mirabilis); conditions: overnight 37° C.; for MIC: Proteus vulgaris
Description: as §1

Str. pneumoniae A-9585 = experiment: MIC, tube dilution, Streptococcus pneumoniae A9585; type: cell-based; conditions: overnight 37° C., Nutrient Broth; for MIC: Streptococcus pneumoniae, A9585, Str. pneumoniae A9585, read-out: Minimum Inhibitory Concentration (M.I.C.)
Description: as §1

Str. pyogenes A-9604 = experiment: MIC, tube dilution, Streptococcus pyogenes A9604; type: cell-based; conditions: Streptococcus pyogenes, A9604, Str. pyogenes A9604; overnight 37° C., Nutrient Broth; read-out: Minimum Inhibitory Concentration (M.I.C.)
Description: as §1

[6] = read-out: Minimum Inhibitory Concentration (M.I.C.), Staph. aureus A15097 (Meth-Res)
[7] = Escherichia coli, A203411; E. coli A20341-1; overnight 37° C.; read-out: Minimum Inhibitory Concentration (M.I.C.)
[8] = read-out: Minimum Inhibitory Concentration (M.I.C.), Staph. aureus A9606 (Pen-Res)
[9] = A21205, read-out: Minimum Inhibitory Concentration (M.I.C.)
[10] = A9716, read-out: Minimum Inhibitory Concentration (M.I.C.), Proteus vulgaris / Proteus mirabilis A9716

Structure (SMILES)	MIC [1, 6]	MIC (Ser. marcescens A-20019)	MIC (Pr. mirabilis A-9900)	MIC [2]	MIC (Ent. cloacae A-9656; Enterobacter cloacae A9656)	MIC (Ps. aeruginosa A-9843A)	MIC (K. pneumoniae A-15130)	MIC (E. coli A-20341-1; [7])	MIC (Str. faecalis A-20688)	MIC (Ent. cloacae A-9659)	MIC (Pr. morganii A-15153)	MIC (Staph. aureus A-9537)	MIC [3, 8]	MIC (Ps. aeruginosa A-21213)	MIC [4]	MIC (E. coli A-15119)	MIC [5, 9]	MIC (Pr. vulgaris A-9716; [10])	MIC (Str. pneumoniae A-9585)	also measured
O=C([O-])C1=C(c2ccccc2)S[C@@H]2CC(=O)N12.[Na+] [Preparation 7, Sodium 2-Phenylpenem-3-carboxylate]	63 µg/mL	32 µg/mL	4 µg/mL	> 63 µg/mL	125 µg/mL	> 125 µg/mL	63 µg/mL	> 125 µg/mL	16 µg/mL	32 µg/mL	32 µg/mL	2 µg/mL	8 µg/mL	> 125 µg/mL	> 125 µg/mL	4 µg/mL	16 µg/mL	4 µg/mL	–	Minimum Inhibitory Concentration (M.I.C.) (Ser. marcescens A-20019; Serratia marcescens A20019): 63 µg/mL; Minimum Inhibitory Concentration (M.I.C.) (K. pneumoniae A-15130; K. pneumoniae A15130): 125 µg/mL; Minimum Inhibitory Concentration (M.I.C.) (Ent. cloacae A-9659; Enterobacter cloacae A9659): 63 µg/mL; Minimum Inhibitory Concentration (M.I.C.) (Pr. morganii A-15153; Proteus morganii A15153): 63 µg/mL; Minimum Inhibitory Concentration (M.I.C.) ([3]; Staph. aureus A9606 (Pen-Res)): 16 µg/mL; Minimum Inhibitory Concentration (M.I.C.) (E. coli A-15119; E. coli A15119): 8 µg/mL
CC1=C(C(=O)O)N2C(=O)C(C(O)c3ccccc3)C2S1 (stereo not shown) [Example 4]	–	> 125 µg/mL	63 µg/mL (≈ 216 µM)	> 63 µg/mL	–	–	> 125 µg/mL	–	125 µg/mL (≈ 429 µM)	> 125 µg/mL	125 µg/mL (≈ 429 µM)	8 µg/mL (≈ 27.5 µM)	–	–	> 125 µg/mL	> 125 µg/mL	–	–	1 µg/mL (≈ 3.43 µM)	MIC ([1]; Staph. aureus A15097 (Meth-Res), read-out: Minimum Inhibitory Concentration (M.I.C.)): 125 µg/mL (≈ 429 µM); MIC (Ent. cloacae A-9656; Enterobacter cloacae, A9656, Enterobacter cloacae A9656): > 125 µg/mL; MIC (E. coli A-20341-1; Escherichia coli, A203411, E. coli A20341-1; overnight 37° C.; read-out: Minimum Inhibitory Concentration (M.I.C.)): > 125 µg/mL; MIC ([3]; Staph. aureus A9606 (Pen-Res), read-out: Minimum Inhibitory Concentration (M.I.C.)): 4 µg/mL (≈ 13.7 µM); MIC ([5]; A21205, Providencia stuartii (Pr. rettgeri) A21205, overnight 37° C., read-out: Minimum Inhibitory Concentration (M.I.C.)): 125 µg/mL (≈ 429 µM); MIC (Str. pyogenes A-9604): 4 µg/mL (≈ 13.7 µM); MIC (Pr. vulgaris A-9716; A9716, Proteus vulgaris / Proteus mirabilis A9716, read-out: Minimum Inhibitory Concentration (M.I.C.)): 63 µg/mL (≈ 216 µM)
CCCCCC1=C(C(=O)[O-])N2C(=O)C[C@H]2S1.[K+] [Preparation 16, Potassium 2-Pentylpenem-3-carboxylate]	125 µg/mL	125 µg/mL	4 µg/mL	> 63 µg/mL	125 µg/mL	> 125 µg/mL	> 125 µg/mL	> 125 µg/mL	32 µg/mL	> 125 µg/mL	16 µg/mL	–	4 µg/mL	> 125 µg/mL	> 125 µg/mL	63 µg/mL	16 µg/mL	4 µg/mL	–	Minimum Inhibitory Concentration (M.I.C.) (Pr. mirabilis A-9900; Proteus mirabilis A9900): 8 µg/mL; Minimum Inhibitory Concentration (M.I.C.) (Pr. vulgaris A-9716; Proteus vulgaris / Proteus mirabilis A9716): 8 µg/mL
CC(=O)OCC1=C(C(=O)[O-])N2C(=O)C[C@H]2S1.[Na+] [Preparation 5, Sodium 2-(Acetoxymethyl)penem-3-carboxylate]	> 125 µg/mL	> 125 µg/mL	> 125 µg/mL	> 63 µg/mL	> 125 µg/mL	> 125 µg/mL	> 125 µg/mL	> 125 µg/mL	> 125 µg/mL	> 125 µg/mL	> 125 µg/mL	125 µg/mL	> 125 µg/mL	> 125 µg/mL	> 125 µg/mL	> 125 µg/mL	> 125 µg/mL	> 125 µg/mL	> 8 µg/mL	Minimum Inhibitory Concentration (M.I.C.) (Staph. aureus A-9537; Staph. aureus A9537): > 125 µg/mL; Minimum Inhibitory Concentration (M.I.C.) (Str. pneumoniae A-9585; Str. pneumoniae A9585): 16 µg/mL
